The nature of series [1]: Intestinal absorption, single-pass intestinal perfusion. The series is classed as in vivo, rats. Here is the method: In order to determine intestinal absorption (%) of a naphthoquinone-based compound, a single-pass intestinal perfusion technique was carried out in internal organs of rats, including jejunum, ileum and large intestine. The steady-state intestinal effective permeability (Peff) can be expressed according to the following equation. Peff=[−Qin·ln (Cout/Cin)]/A Peff: Steady-state intestinal effective permeability (cm/s) Qin: Perfusion flow rate (0.4 mL/min) Cin, Cout: Inlet and fluid-transport-corrected outlet solution concentrations A: Mass transfer surface area within intestinal segment (2πrL), r, L: Radius and length of intestinal segment The radius (r) and length (L) of the jejunum, ileum and large intestine used in experiments are as follows: (r: jejunum, 0.21 cm; ileum, 0.22 cm; large intestine, 0.23 cm, and L: 10 cm) The steady-state was confirmed by the ratio of the outlet to inlet concentrations (Cout/Cin) versus time. The steady-state is established when the Cout/Cin ratio of the naphthoquinone-based compound is maintained at a constant value (n=3, error bars with respect to S.D.). Residual amounts of the naphthoquinone-based compound in the above three intestinal organs were measured at different time points. The outlet steady-state concentration of the compound under perfusion was calculated. The results thus obtained are given in Table 4 and FIG. 2, respectively. The effective permeability was measured at 4 points of each intestinal tissue.

Series [2] can be described thus: Determination of partition coefficients (octanol / phosphate buffer pH 7.4). Conditions: sample 200 μg/mL; octanol/water; replicates 1-3. It is filed as physicochemical. The procedure: Octanol and phosphate buffer (pH 7.4) were saturated with a counter-solvent for 24 hours or more. A given amount of a naphthoquinone-based compound (compound 1 of Table 1 below) was dissolved in the thus-saturated octanol, mixed with triple-distilled water and stirred using a magnetic stirrer at 200 rpm for 13 hours or more. Samples were taken, filtered through a 0.45 μm RC Membrane filter and diluted with methanol. The diluted sample materials were analyzed by HPLC. A partition coefficient versus an amount of the compound 1 was determined.

For series [3] the following is noted: cited from earlier work.

“And” between values parts separate entries of the source, which are not always exact repeats. Identical values can stand only once.

In the case of `CC1(C)CCC2=C(O1)c1ccccc1C(=O)C2=O` [naphthoquinone-based compound], the Peff is reported as 0.79 ± 0.33 × 10^−5 (cm/s) in series [1] (Duodenum), 5.15 ± 1.49 × 10^−5 (cm/s) in series [1] (Ileum), 2.37 ± 1.17 × 10^−5 (cm/s) in series [1] (Jejunum) and 7.82 ± 0.93 × 10^−5 (cm/s) in series [1] (Large intestine).
Take `CC1(C)CCC2=C(O1)c1ccccc1C(=O)C2=O` [Compound 1]: the “Partition Coefficient” value in series [2] was 2.40 and 2.20.
In the case of `C[C@H]1COC2=C1C(=O)C(=O)c1c2ccc2c1CCCC2(C)C` [cryptotanshinone], the “absorption rate via oral administration” value in series [3] is reported as 2.05%.

(Values after patent US20100239685A1, “COMPOUND FOR TREATMENT OR PREVENTION OF PROSTATE-RELATED DISEASES AND PHARMACEUTICAL COMPOSITION OF COLON DELIVERY SYSTEM CONTAINING THE SAME” (priority 2006, published 2010).)
